{"source": "patent US5821231A", "about": "“CS-1 peptidomimetics, compositions and methods of using same” (Cytel Corporation, priority 1995, dated 1998)", "key": {"[1]": {"tested_on": "New Zealand white rabbits", "test": "Treatment of asthmatic rabbits (house dust mite antigen challenge, crossover)", "type": "in vivo, rabbit", "conditions": "100 mg/kg nebulizer", "method": "Six New Zealand white rabbits were immunized with house dust mite antigen from birth through four months of age. Upon immunization, three rabbits received a single nebulizer administration of the inhibitor compound, Compound ID No. 1051.01, N-phenylacetyl-Leu-Asp-Phe-morpholinamide in aqueous 50 percent ethanol as diluent in an amount of 100 mg/kg, and the other three received diluent alone. All of the rabbits were challenged with house dust mite antigen about 15-30 minutes after administration of the compound, with those animals not receiving compound serving as controls.\nOnce immunized and challenged, the inflammatory state subsides to a basal level within about three weeks. The three animals used as controls were thereafter used as subjects for receipt of an inhibitor compound, and the three rabbits that initially received the compound can serve as controls.\nSuch a crossover study was done here. […]\nInitial pulmonary function, measured by dynamic compliance (Cdyn) and lung resistance (RL), and bronchoalveolar lavage (BAL) to obtain an effector cell count, here eosinophils, were conducted prior to administration of the compound or diluent for both portions of this crossover study. […]"}, "[2]": {"tested_on": "BALB/c mice", "test": "Adoptive transfer delayed type hypersensitivity in mice (oxazolone)", "type": "in vivo, mouse", "conditions": "expanded study; versus vehicle alone", "method": "An adoptive transfer delayed-type hypersensitivity murine model has been developed using splenic T cells primed to oxazolone. This model is described in Elices et al., Clin. Exp. Rheum., 11(Suppl. 8):577-580 (1993), whose procedures were followed here.\nThus, BALB/c mice were shaved on the belly and painted (50 μl on the belly and 5 μl on each paw) with three percent oxazolone in acetone/olive oil (4:1) at days zero and 1. At day 5, the mice were sacrificed, their spleens removed, and splenic T cells were obtained via nylon wool columns.\nNormal saline or saline containing 25×10^6 /animal of the oxazolone-immune T cells were separately injected into naive mice. The mice were then challenged by painting 10 μl of 2 percent oxazolone onto one ear each. All procedures were carried out under sterile conditions and in endotoxin-free buffers.\nPrior to challenge or saline injection, the mice were implanted with pumps that subcutaneously administered normal saline, normal saline containing the compound, Compound ID No. 896.52, N-phenylacetyl-Leu-Asp-Phe-D-Pro-NH2, or normal saline containing a compound with a scrambled sequence continually at 6 mg/kg/day for a 24-hour time period. The swelling diameter at the site of challenge or saline injection was measured with a microcaliper 24 hours thereafter.\nAn expanded study was carried out as described above except that a scrambled compound control was not used as a control for further inhibitor compounds of Table 1 with larger groups of mice. Statistical analyses were carried out versus injection of vehicle alone."}, "[3]": {"molecular_target": "T1, VLA-4 (Homo sapiens, UniProt P05556+P13612)", "T1 sequence (P13612 34-1032)": "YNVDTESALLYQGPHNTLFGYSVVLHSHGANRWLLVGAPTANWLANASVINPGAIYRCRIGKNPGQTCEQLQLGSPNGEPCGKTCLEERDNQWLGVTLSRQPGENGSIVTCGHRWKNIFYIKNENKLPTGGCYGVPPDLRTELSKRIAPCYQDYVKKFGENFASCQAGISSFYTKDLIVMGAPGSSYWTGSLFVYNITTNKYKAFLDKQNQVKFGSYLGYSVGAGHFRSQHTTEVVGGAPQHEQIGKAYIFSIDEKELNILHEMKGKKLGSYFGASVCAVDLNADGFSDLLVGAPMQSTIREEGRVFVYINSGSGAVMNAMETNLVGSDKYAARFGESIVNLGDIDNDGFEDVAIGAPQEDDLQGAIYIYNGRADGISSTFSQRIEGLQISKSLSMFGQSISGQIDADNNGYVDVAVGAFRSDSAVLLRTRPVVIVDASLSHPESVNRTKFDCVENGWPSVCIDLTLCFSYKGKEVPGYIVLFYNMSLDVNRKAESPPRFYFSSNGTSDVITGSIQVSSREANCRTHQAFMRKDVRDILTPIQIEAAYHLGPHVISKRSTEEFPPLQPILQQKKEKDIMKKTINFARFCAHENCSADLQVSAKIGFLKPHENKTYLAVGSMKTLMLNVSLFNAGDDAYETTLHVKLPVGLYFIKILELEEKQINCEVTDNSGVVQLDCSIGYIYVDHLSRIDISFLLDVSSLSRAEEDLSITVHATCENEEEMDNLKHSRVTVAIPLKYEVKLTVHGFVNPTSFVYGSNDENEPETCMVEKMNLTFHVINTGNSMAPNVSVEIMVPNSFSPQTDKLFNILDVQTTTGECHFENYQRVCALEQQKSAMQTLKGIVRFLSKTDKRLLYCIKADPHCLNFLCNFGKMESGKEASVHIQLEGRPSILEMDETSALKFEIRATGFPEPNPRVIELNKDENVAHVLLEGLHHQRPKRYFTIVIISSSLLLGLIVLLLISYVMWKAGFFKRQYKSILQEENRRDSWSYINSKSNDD", "T1 sequence (P05556 21-798)": "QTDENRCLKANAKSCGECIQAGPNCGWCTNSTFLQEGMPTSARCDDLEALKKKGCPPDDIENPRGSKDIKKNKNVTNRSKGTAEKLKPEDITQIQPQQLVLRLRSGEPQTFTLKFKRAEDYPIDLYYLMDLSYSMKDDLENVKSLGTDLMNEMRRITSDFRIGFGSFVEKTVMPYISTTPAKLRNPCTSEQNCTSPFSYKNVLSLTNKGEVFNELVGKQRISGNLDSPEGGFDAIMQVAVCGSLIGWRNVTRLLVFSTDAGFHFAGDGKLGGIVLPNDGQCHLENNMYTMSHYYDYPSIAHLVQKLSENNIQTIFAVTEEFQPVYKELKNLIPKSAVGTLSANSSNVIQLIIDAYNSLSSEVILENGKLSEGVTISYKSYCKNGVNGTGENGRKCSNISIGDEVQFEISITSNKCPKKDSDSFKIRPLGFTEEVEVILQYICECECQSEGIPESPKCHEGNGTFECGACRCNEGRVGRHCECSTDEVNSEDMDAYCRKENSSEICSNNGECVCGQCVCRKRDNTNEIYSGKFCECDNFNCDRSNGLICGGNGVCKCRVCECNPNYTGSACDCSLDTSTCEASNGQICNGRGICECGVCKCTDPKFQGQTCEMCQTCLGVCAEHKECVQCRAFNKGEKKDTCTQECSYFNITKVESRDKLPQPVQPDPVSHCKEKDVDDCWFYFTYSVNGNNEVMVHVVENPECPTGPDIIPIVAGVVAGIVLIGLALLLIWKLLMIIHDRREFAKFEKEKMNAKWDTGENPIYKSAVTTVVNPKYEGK", "test": "In vitro binding assay: 51Cr-labeled Jurkat cells to solid phase-bound CS-1 compound (SEQ ID NO:1)", "type": "cell-based", "parameters": "inflammatory cells that contain the VLA-4 receptor [Jurkat cells; host or cells: Jurkat cells (human T lymphoblastic line)", "conditions": "binding inhibition potency (IC50) relative to standard compound of SEQ ID NO:3 = 1; about one-tenth or less assigned zero", "method": "Binding inhibition is measured here as a concentration of compound that inhibits one-half the binding between a standard number of Jurkat cells and a standard amount of CS-1 compound bound to the surface of a microtiter plate well. Those concentrations are conveniently expressed as IC50 values, smaller numbers indicating a lower concentration required to inhibit 50 percent binding and therefore greater potency. Further specifics of this assay are provided hereinafter.\nJurkat cells (ATCC TIB 152), a human T lymphoblastic line, labeled with ^51 chromium were used to assay in vitro binding inhibition provided by various compounds discussed herein.\nThe plates were prepared as follows: The 25-mer CS-1 compound (SEQ ID NO:1) dissolved at 0.5-1 μg/ml in a buffer of 0.1M NaHCO3 at pH 9.5 that also contained 10 μg/ml of bovine serum albumin (BSA) or a conjugate of the CS-1 compound linked to ovalbumin (CS-1-OVA) dissolved at 1-2.5 μg/ml in the same buffer was used as the substrate. Each well of the microtiter plates was coated with 50 μl of substrate or buffer alone for controls. The wells were permitted to dry out completely and were then rinsed twice with PBS at pH 7.4. Non-specific binding sites of each well were then blocked using 200 μl per well of RPMI/1 percent BSA for two hours at room temperature.\nJurkat cells (3-5×10^6 cells) were placed into a 15 ml Falcon™ round-bottom tube with a cap. The tube was centrifuged, and the extra medium was then removed.\nTwo hundred microliters of a ^51 Cr labeling solution were added to the centrifuged cells and maintained in contact with the cells for 90-120 minutes in a warm room. […] Longer contact times provide a greater amount of labeling but lower cell viability.\nThe labeled cells are washed with (i) complete medium, (ii) 1 mM EDTA/PBS and then (iii) RPM1/1 percent BSA free of serum components. The cells are centrifuged after each washing. The cells are finally resuspended in serum-free RPMI/1 percent BSA at a concentration of 1×10^6 viable cells/ml, which provides a concentration that is diluted by one-half in the assay.\nInhibitor compounds are prepared as stock solutions at 20 mg/ml in DMSO in 1.5 ml cryogenic screwcap vials, and were stored at -70° C. Using Flow™ round-bottom or V-bottom microtiter plates, the inhibitor compounds were prepared at twice the assay concentration in RPMI/1 percent BSA at 60 μl/well.\nFour initial dilutions were typically used.\nThe ^51 Cr-labeled cells ([…] at 60 μl/well) were then admixed with the diluted compound solutions. The admixtures were maintained at room temperature (about 22° C.) for 30 minutes.\nOne hundred microliters of each inhibitor compound/cell admixture were transferred to the substrate-coated wells. This was done in triplicate for each dilution. The resulting plates were incubated for 30 minutes at 37° C. and then washed gently three times with RPMI/1 percent BSA at 200 μl/well. Binding was observed microscopically, particularly after the second wash.\nThe bound cells were then lysed by the addition of a 0.5 percent solution of sodium dodecylsulfate in water at 100 μl/well. The resulting solutions were then processed for counting and calculation of IC50 values following usual procedures.\nThe data of Table 1 are normalized to the binding of SEQ ID NO: 3. […] Multiple assays for the same compound were averaged."}, "[4]": {"tested_on": "Jurkat T cell line", "test": "Jurkat cell binding to frozen human rheumatoid arthritis synovial sections", "type": "cell-based", "conditions": "10-mer at 500 μg/ml", "method": "Binding studies were carried out using the Jurkat T cell line and frozen RA synovial sections. […] Stimulated MOLT-4 cells behaved similarly.\nThe absolute value of that IC50 value is about 0.5 μmolar."}, "[5]": {"tested_on": "immune T cells", "conditions": "about 50 μg/ml admixed with immune T cells; Ferguson et al.; cited from earlier work"}, "[6]": {"molecular_target": "T1, VLA-4", "conditions": "cited from earlier work"}}, "note": "Square brackets hold non-standard residues; d marks the D form. Peptide text beside a SMILES is read from it. * marks the point of attachment. NMeD = CN[C@@H](CC(=O)O)C(=O)O; Morpholide = C1CN(*)CCO1; PhAc = O=C(Cc1ccccc1)*", "data": [{"compound": "CC(C)C[C@H](NC(=O)Cc1ccccc1)C(=O)N[C@@H](CC(=O)O)C(=O)N[C@@H](Cc1ccccc1)C(=O)N1CCOCC1", "note": "[1051.01, N-phenylacetyl-Leu-Asp-Phe-morpholinamide] (PhAc-Leu-Asp-Phe-Morpholide)", "values": [{"measurement": "Cdyn value over six hours after challenge", "setting": "[1]; FIG. 4A", "value": "stayed at about the initial value"}, {"measurement": "RL values over six hours after challenge", "setting": "[1]; FIG. 4B", "value": "remained between the initial value and about 200% of that value"}]}, {"compound": "CC(C)C[C@H](NC(=O)Cc1ccccc1)C(=O)N[C@@H](CC(=O)O)C(=O)N[C@@H](Cc1ccccc1)C(=O)N1CCC(O)CC1", "note": "[1070.02, .phi.Ac--Leu--Asp--Phe-4-hydroxpiperidinamide]", "values": [{"measurement": "Percent Inhibition (post-challenge swelling)", "setting": "[2]", "value": 29, "unit": "%"}]}, {"compound": "CC(C)C[C@H](NC(=O)Cc1ccccc1)C(=O)N[C@@H](CC(=O)O)C(=O)N[C@@H](Cc1ccccc1)C(=O)N1CCN(CC(=O)O)CC1", "note": "[1111.06, .phi.Ac--Leu--Asp--Phe-4-N(carboxymethyl)piperazinamide]", "values": [{"measurement": "Percent Inhibition (post-challenge swelling)", "setting": "[2]", "value": 30, "unit": "%"}, {"measurement": "Relative Potency", "setting": "[3]", "value": 2600}]}, {"compound": "CC(C)C[C@H](NC(=O)Cc1ccccc1)C(=O)N(C)[C@@H](CC(=O)O)C(=O)N[C@@H](Cc1ccccc1)C(=O)N1CCC[C@@H]1C(N)=O", "note": "[1190.06] (PhAc-L[NMeD]F[dP]-NH2)", "values": [{"measurement": "Relative Potency", "setting": "[3]", "value": 0}]}, {"compound": "CC[C@H](C)[C@H](NC(=O)[C@H](CCC(=O)O)NC(=O)[C@@H]1CCCN1C(=O)CN)C(=O)N[C@@H](CC(C)C)C(=O)N[C@@H](CC(=O)O)C(=O)N[C@H](C(=O)N1CCC[C@H]1C(=O)N[C@@H](CO)C(=O)N[C@H](C(=O)O)[C@@H](C)O)C(C)C", "note": "[SEQ ID NO:3, GPEILDVPST] (H-GPEILDVPST-OH)", "values": [{"measurement": "inhibition of Jurkat cell adhesion to RA synovial sections", "setting": "[4]", "value": "could be inhibited"}, {"measurement": "abrogation of a transferred immune response", "setting": "[5]", "value": "could abrogate a transferred immune response"}]}, {"compound": "Leu-Asp-Val [LDV]", "values": [{"measurement": "affinity of VLA-4 relative to native CS-1 25-mer", "setting": "[6]", "value": "at least two orders of magnitude lower affinity"}]}]}
